# Biological target: Enoyl acyl carrier protein (ACP) reductase (InhA) (Mycobacterium tuberculosis, UniProt P9WGR1)
# Assay: colorimetric InhA assay, NADH oxidation at […] nm with 2-trans-octanoyl-CoA
# Assay type: biochemical
# Enoyl acyl carrier protein (ACP) reductase (InhA), sequence (P9WGR1 whole entry, looked up): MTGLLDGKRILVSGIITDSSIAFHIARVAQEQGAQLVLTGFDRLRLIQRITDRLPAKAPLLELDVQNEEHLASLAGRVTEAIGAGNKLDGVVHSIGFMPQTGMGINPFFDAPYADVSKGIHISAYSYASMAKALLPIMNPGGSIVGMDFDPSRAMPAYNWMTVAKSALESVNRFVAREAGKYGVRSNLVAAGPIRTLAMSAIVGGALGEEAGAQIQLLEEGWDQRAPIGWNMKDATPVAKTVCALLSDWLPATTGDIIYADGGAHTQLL
smiles,measurement,value
C/C(=N\NS(=O)(=O)c1ccc(C)cc1)c1c(O)c2ccccc2oc1=O [compound 3],IC50,1.62 ± 0.69 µM
CC(=NNS(=O)(=O)c1ccc(C)cc1)c1ccccn1 [compound 7],IC50,0.91 ± 0.03 µM

# From PMC11418391, “Benzenesulfonohydrazide-tethered non-fused and fused heterocycles as potential anti-mycobacterial agents targeting enoyl acyl carrier protein reductase (InhA) with antibiofilm activity” (RSC Advances, 2024)
